Consider 18 compounds from PubChem BioAssay (NCI).

“And” between values parts separate entries of the source, which are not always exact repeats. Equal entries are not always repeated.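 Growth conditions: 96-well plates. Treatment: test compound, 48 hours, 5 concentrations. Analysis: linear interpolation between bracketing concentrations; unreached endpoints set to highest concentration. GI50 = concentration required for 50% inhibition of growth. TGI is the concentration that stops growth completely.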 Bounds are passed on as bounds.

Holding throughout (test): NCI-60 cell line screen, 48 h
The test system of experiment [1] is 786-0 renal.
Experiment [2] has as its system A498 renal.
The test system of experiment [3] is A549 NSCLC.
The subject of experiment [4] is EKVX NSCLC.
The test system of experiment [5] is LOX IMVI melanoma.
Experiment [6] has as its system NCI-H460 lung.
Experiment [7] deals with OVCAR-8 ovarian.
Experiment [8] concerns RPMI-8226 leukemia.
The subject of experiment [9] is SF-295 CNS.
For experiment [10], the system named is SK-MEL-28 melanoma.

Consider `CCCCCCCCCC(=O)OCC1OC(n2cc(F)c(=O)[nH]c2=O)C(N)C(OC(=O)CCCCCCCCC)C1O` (centres undefined), for which the TGI in experiment [1] is 32.9 µM; in experiment [2], 31.6 µM; in experiment [3] it was 34.1 µM; in experiment [4] it was 34.1 µM; in [5], 30.1 µM; in experiment [6], 40.5 µM. Also, the TGI in experiment [7] is 34.6 µM; in [8], 48.4 µM; in [9], 31.9 µM; in experiment [10], 30.4 µM.
Consider `COc1ccccc1NC(=O)C1=C(C)NC(C)=C(C(=O)Nc2ccccc2OC)C1c1ccccc1OC`, for which the TGI in experiment [1], in experiment [2], in experiment [3], in experiment [4], in [5] and in experiment [6] was more than 100 µM each time. In addition, the TGI in experiment [7], in experiment [8], in experiment [9] and in experiment [10] was more than 100 µM throughout.
On to `CC1(C)C2CCC13C(=O)C1OC3(C2)C2C(=O)c3c(O)ccc(O)c3C(=O)C12` (centres undefined), for which the GI50 in experiment [1] was 10.5 µM; in experiment [2], 4.95 µM; in experiment [3], 46.6 µM; in [4], more than 100 µM; in [5] it was 32.2 µM; in experiment [6], 36.8 µM. In addition, the GI50 is 47.2 µM in experiment [7], 1.27 µM in experiment [8], 25.2 µM in experiment [9] and 36 µM in [10]. In addition, the TGI in [1] is 24.7 µM; in experiment [2], 56.6 µM; in [3] it was more than 100 µM; in experiment [4], more than 100 µM; in experiment [5], more than 100 µM; in experiment [6], more than 100 µM. Further, the TGI in experiment [7] was more than 93.9 µM; in experiment [8], 6.1 µM; in experiment [9], more than 100 µM; in experiment [10], more than 100 µM.
Consider `Cc1ccc(S(=O)(=O)n2cc(C(=O)C(=O)Nc3ccncc3)c3ccccc32)cc1`, for which the GI50 in [1] is 3.89 µM; in experiment [2], 4.11 µM; in experiment [3] it was 16.5 µM; in experiment [4], 3.23 µM; in experiment [5], 1.04 µM; in experiment [6], 7.05 µM. Further, the GI50 was 3.1 µM in experiment [7], 1.45 µM in experiment [8], 1.67 µM in experiment [9] and 4.17 µM in experiment [10]. The TGI in [1] was more than 73.2 µM; in [2], 77.6 µM; in [3], more than 100 µM; in experiment [4] it was more than 100 µM; in experiment [5] it was more than 100 µM; in experiment [6], 96.8 µM. Further, the TGI was more than 100 µM in experiment [7], more than 100 µM in experiment [8], 9.57 µM in experiment [9] and more than 100 µM in experiment [10].
As to `COc1cc2c(cc1OC)[C@@]1(C)C(=O)c3cc4c(cc3[C@H]1N(C)C2=O)OCO4`, the GI50 in experiment [1] is 54.3 µM; in [2] it was 18.6 µM; in [3] it was 62.9 µM; in experiment [4] it was 55 µM; in [5], 48.4 µM; in [6] it was 37.7 µM. Further, the GI50 in experiment [7] is 29.3 µM; in experiment [8], 33.9 µM; in [9] it was 43.3 µM; in experiment [10] it was more than 100 µM. The TGI in experiment [1] is more than 100 µM; in experiment [2] it was 90.7 µM; in [3], more than 100 µM; in experiment [4], more than 100 µM; in experiment [5], more than 100 µM; in experiment [6] it was more than 100 µM. The TGI in experiment [7], in [8], in [9] and in experiment [10] was more than 100 µM in each case.
Consider `O=C(O)c1cccc(CC(Br)C(=O)O)c1` (centres undefined), for which the TGI in experiment [1], in experiment [2], in [3], in experiment [4], in experiment [5] and in [6] was more than 100 µM throughout. The TGI in experiment [7], in experiment [8], in experiment [9] and in [10] was more than 100 µM in each case.
As for `COc1ccc(OC)c2cc(C3(C)SCCCS3)ccc12`, the TGI in experiment [1], in experiment [2], in experiment [3], in experiment [4], in experiment [5] and in experiment [6] was more than 100 µM throughout. The TGI in experiment [7], in experiment [8], in [9] and in experiment [10] was more than 100 µM in each case.
Consider `Cc1c(CCl)c(=O)oc2c(C)c3occ(CCl)c(=O)c3cc12`, for which the TGI in experiment [1] was more than 100 µM; in experiment [2] it was more than 100 µM; in experiment [3], more than 100 µM; in experiment [4] it was more than 100 µM; in experiment [5] it was 30.8 µM; in experiment [6], more than 100 µM. The TGI is more than 100 µM in [7], 26.8 µM in [8], more than 100 µM in [9] and 35.4 µM in experiment [10].
As to `O=C(O)CCC1CCC(c2cc(F)ccc2F)(S(=O)(=O)c2ccc(Cl)cc2)CC1` (centres undefined), the GI50 in [1] was 23.8 µM and > 100 µM; in experiment [3] it was 44.4 µM and > 100 µM; in [4], 15.1 µM and > 68.5 µM; in experiment [5] it was 40.3 µM and > 66.5 µM; in experiment [6], 42.5 µM and > 100 µM; in [7] it was 74.8 µM and > 100 µM. Further, the GI50 in experiment [8] is 71.4 µM and > 100 µM; in [9], more than 56.9 µM; in [10], 25.5 µM and > 100 µM. The TGI in [1] is more than 100 µM; in experiment [2], 67.1 µM and > 100 µM; in experiment [3], more than 100 µM; in [4], more than 100 µM; in experiment [5] it was more than 100 µM; in experiment [6], more than 100 µM. In addition, the TGI in experiment [7], in [8], in [9] and in experiment [10] was more than 100 µM in each case.
Regarding `O=C1/C(=C/C(Cl)=C/c2ccccc2)SC(=S)N1CCc1ccc(O)cc1`, the GI50 in [1] was 2.19 µM; in [2] it was 1.86 µM; in [3], 2.85 µM; in [4] it was 1.97 µM; in experiment [5] it was 1.27 µM; in experiment [6], 2.08 µM. Also, the GI50 is 0.596 µM in experiment [7], 0.674 µM in experiment [8], 3.57 µM in experiment [9] and 1.83 µM in experiment [10]. Further, the TGI is 4.92 µM in experiment [1]; 3.51 µM in experiment [2]; more than 100 µM in [3]; 4.14 µM in experiment [4]; 2.74 µM in experiment [5]; 4.72 µM in [6]. The TGI in experiment [7] came out at 16.3 µM; in [8] it was 12.7 µM; in [9], 15.9 µM; in experiment [10], 3.93 µM.
Turning to `Cn1cnc2c(NCc3ccccc3)nc(NCCO)nc21`, the GI50 in experiment [1] was 105 µM; in [2], 28.8 µM; in experiment [3], 105 µM; in experiment [4], 57 µM; in experiment [5], 48.4 µM; in experiment [6], 77.8 µM. Further, the GI50 in [7] is 90.5 µM; in [8], 81.2 µM; in experiment [9] it was 122 µM; in experiment [10], 88.7 µM. Further, the TGI in experiment [1] is more than 435 µM; in [2], 83.3 µM and 311 µM; in experiment [3], more than 458 µM; in experiment [4], 170 µM; in [5] it was 81.4 µM and > 395 µM; in experiment [6] it was 441 µM. The TGI in experiment [7] was 391 µM; in [8], more than 339 µM; in experiment [9] it was more than 500 µM; in experiment [10], 280 µM.
Take `O=C(Nc1ccc(Br)c(Cl)c1)c1cc(F)ccc1O`: the GI50 in experiment [1] was 1.06 µM; in experiment [2] it was 0.162 µM; in experiment [3] it was 1.75 µM; in [4], 0.77 µM; in experiment [5] it was 0.553 µM; in experiment [6] it was 0.675 µM. Moreover, the GI50 in experiment [7] is 1.21 µM; in experiment [8] it was 0.231 µM; in experiment [9], 0.933 µM; in experiment [10] it was 0.421 µM. Besides, the TGI is 5.73 µM in experiment [1]; 1.03 µM in [2]; more than 50 µM in [3]; 10 µM in experiment [4]; 3.04 µM in experiment [5]; more than 14.8 µM in experiment [6]. Moreover, the TGI in experiment [7] was more than 30.5 µM; in experiment [8], 1.02 µM; in experiment [9] it was 1.89 µM; in experiment [10] it was 3.87 µM.
Regarding `CN1CCN(Cc2ccc(NC(=O)c3cncc(C#Cc4c(N)ncc5cc(F)ccc45)c3)cc2C(F)(F)F)CC1`, the GI50 is 0.892 µM in experiment [1]; 0.839 µM in [2]; 0.887 µM in experiment [3]; 2.8 µM in experiment [4]; 0.587 µM in [5]; 0.904 µM in experiment [6]. Also, the GI50 is 1.27 µM in experiment [7], 1.09 µM in experiment [8], 6.47 µM in [9] and 0.729 µM in [10]. Also, the TGI in experiment [1] turned out to be 1.63 µM; in experiment [2], 3.99 µM; in experiment [3], 1.73 µM; in experiment [4] it was 10.2 µM; in [5] it was 1.26 µM; in [6], 1.9 µM. For the same compound, the TGI in experiment [7] came out at 3.57 µM; in experiment [8], 2.83 µM; in experiment [9] it was 14 µM; in experiment [10], 1.43 µM.
Consider `Cc1c(Cl)ccc2c1NC(=O)C2(O)C1Cc2ccccc2C1=O` (centres undefined), for which the TGI in [1], in experiment [2], in experiment [3], in [4], in [5] and in experiment [6] was more than 100 µM each time. Also, the TGI in experiment [7], in experiment [8], in experiment [9] and in experiment [10] was more than 100 µM each time.
In the case of `Cc1cc(C)n(-c2c(O)ccc(O)c2-n2nc(C)cc2C)n1`, the TGI in experiment [1], in [2], in experiment [3], in [4], in experiment [5] and in experiment [6] was more than 100 µM throughout. The TGI in [7], in experiment [8], in [9] and in [10] was more than 100 µM in each case.
For the compound `O=C(O)CC1(C(=O)O)CCCCC1`, the TGI in experiment [1], in experiment [2], in [3], in experiment [4], in experiment [5] and in [6] was more than 100 µM each time. The TGI in experiment [7], in experiment [8], in experiment [9] and in experiment [10] was more than 100 µM in each case.
For the compound `CN(CCC(=O)O)S(=O)(=O)c1ccccc1`, the TGI in experiment [1], in experiment [2], in [3], in experiment [4], in [5] and in [6] was more than 100 µM each time. Moreover, the TGI in [7], in [8], in [9] and in experiment [10] was more than 100 µM throughout.
Take `CCN(CC)c1ccc2c(c1)N=C1N=CC=CN1C2(c1ccc(N(C)C)cc1)c1ccc(N(C)C)cc1`: the TGI in experiment [1] was found to be 24.1 µM; in experiment [2] it was 33.3 µM; in [3] it was 28 µM; in [4], 23.8 µM; in experiment [5], 18.4 µM; in experiment [6], 22.2 µM. Besides, the TGI amounted to 17.5 µM in experiment [7], 8.1 µM in experiment [8], 15.6 µM in [9] and 26 µM in experiment [10].
